{"source": "patent US20140005181A1", "about": "“SMALL MOLECULE ANTAGONISTS OF THE APELIN RECEPTOR FOR THE TREATMENT OF DISEASE” (Sanford-Burnham Medical Research Institute, priority 2012, published 2014)", "key": {"human hepatocytes": {"test_system": "human hepatocytes", "test": "Hepatic toxicity / cytotoxicity", "conditions": "Table 1"}, "[1]": {"test": "Hepatic toxicity / cytotoxicity", "conditions": "human, hepatocytes"}, "Plasma stability, human": {"test": "Plasma stability, human", "assay_type": "in vitro ADME", "conditions": "Plasma:1x PBS pH 7.4 1:1, 3 hrs"}, "[2]": {"test": "Stability in 1x PBS pH 7.4 (plasma stability assay)", "assay_type": "physicochemical", "conditions": "1x PBS pH 7.4, 3 hrs"}, "APJ": {"target": "T1, APJ (Homo sapiens, UniProt P35414)", "T1 sequence (P35414 1-380)": "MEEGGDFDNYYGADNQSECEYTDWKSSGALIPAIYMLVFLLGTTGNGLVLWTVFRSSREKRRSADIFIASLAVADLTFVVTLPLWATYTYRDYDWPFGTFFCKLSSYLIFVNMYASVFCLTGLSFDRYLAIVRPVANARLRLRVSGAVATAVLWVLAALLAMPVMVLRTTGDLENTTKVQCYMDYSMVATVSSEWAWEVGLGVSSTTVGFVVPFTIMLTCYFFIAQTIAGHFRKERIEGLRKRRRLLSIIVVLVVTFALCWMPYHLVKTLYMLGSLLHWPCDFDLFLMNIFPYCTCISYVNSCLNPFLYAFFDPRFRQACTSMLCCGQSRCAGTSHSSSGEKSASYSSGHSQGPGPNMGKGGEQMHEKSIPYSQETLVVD", "test": "APJ receptor internalization assay", "assay_type": "cell-based", "conditions": "fixed apelin-13 6.23 nM", "experimental": "This graph depicts the mean percent inhibition (±SEM) of apelin-13 mediated receptor internalization. Representative of an experiment that was repeated three times with each data point performed in triplicate. Curve fit analysis was performed using nonlinear regression with a 4-point logistic fit (GraphPad Prism5)."}, "[3]": {"test_system": "benzodiazepinone receptors", "test": "PDSP GPCR binding assay panel"}, "PAMPA permeability": {"test": "PAMPA permeability", "assay_type": "in vitro ADME", "conditions": "for Papp: PAMPA, read-out: PAMPA Pe", "experimental": "The PAMPA (Parallel Artificial Membrane Permeability Assay) assay is used as an in vitro model of passive, transcellular permeability. An artificial membrane immobilized on a filter is placed between a donor and acceptor compartment. At the start of the test, drug is introduced in the donor compartment. Following the permeation period, the concentration of drug in the donor and acceptor compartments is measured using UV spectroscopy."}, "kappa opioid receptor": {"target": "T2, kappa opioid receptor (Homo sapiens, UniProt P41145)", "T2 construct": "Psychoactive Drug Screening Program (PDSP), University of North Carolina", "T2 sequence (P41145 whole entry)": "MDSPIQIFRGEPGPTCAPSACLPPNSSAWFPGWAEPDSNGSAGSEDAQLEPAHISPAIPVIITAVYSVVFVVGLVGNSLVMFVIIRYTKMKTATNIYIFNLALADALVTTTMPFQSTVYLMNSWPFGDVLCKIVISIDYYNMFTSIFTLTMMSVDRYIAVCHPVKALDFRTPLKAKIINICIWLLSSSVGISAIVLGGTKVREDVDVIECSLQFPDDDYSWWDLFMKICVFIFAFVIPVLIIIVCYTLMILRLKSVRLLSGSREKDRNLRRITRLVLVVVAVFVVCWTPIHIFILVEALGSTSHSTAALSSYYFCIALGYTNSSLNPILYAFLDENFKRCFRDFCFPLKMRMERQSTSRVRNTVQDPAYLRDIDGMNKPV", "test": "PDSP GPCR binding assay panel"}, "[4]": {"test": "Hepatic microsome stability, mouse"}, "[5]": {"test": "Hepatic microsome stability, human"}}, "note": "“And” between values parts separate entries of the source, which are not always exact repeats. Equal values may be shown once. Read-outs that look alike come from different tables or passages of the source."}
{"smiles": "O=C(Oc1coc(CSc2ncccn2)cc1=O)c1ccc([N+](=O)[O-])cc1", "note": "[Compound 6, 4-OXO-6-((PYRIMIDIN-2-YLTHIO)METHYL)-4H-PYRAN-3-YL-4-NITROBENZOATE]", "values": [{"measurement": "Cytotoxicity", "setting": "human hepatocytes", "value": ">50", "unit": "µM"}, {"measurement": "CC50", "setting": "[1]", "value": "> 50", "unit": "µM"}, {"measurement": "Plasma Stability (% Remaining @3 hrs)", "setting": "Plasma stability, human", "value": 0.26, "unit": "%"}, {"measurement": "Plasma Stability (% Remaining @3 hrs), 1x PBS pH 7.4", "setting": "[2]; first value (Human position)", "value": 46.97, "unit": "%"}, {"measurement": "Plasma Stability (% Remaining @3 hrs), 1x PBS pH 7.4", "setting": "[2]; second value (Mouse position)", "value": 42.18, "unit": "%"}, {"measurement": "antagonism of apelin-13 induced APJ receptor internalization", "setting": "APJ", "value": "antagonized the ability of apelin-13 to induce APJ receptor internalization"}, {"measurement": "binding activity at benzodiazepinone receptors", "setting": "[3]", "value": "significant activity"}, {"measurement": "PAMPA Pe (×10^−6 cm/s)", "setting": "PAMPA permeability; Donor pH 7.4, Acceptor pH 7.4", "value": "271 ×10^−6 cm/s"}, {"measurement": "Papp", "setting": "PAMPA permeability; Donor pH 5.0, Acceptor pH 7.4", "value": 195, "unit": "×10⁻⁶ cm/s"}, {"measurement": "Papp", "setting": "PAMPA permeability; Donor pH 6.2, Acceptor pH 7.4", "value": 240, "unit": "×10⁻⁶ cm/s"}, {"measurement": "Permeability (PAMPA) pH 7.4", "setting": "PAMPA permeability; Table 1, pH 7.4", "value": "271.0 × 10^−6 cm/s"}, {"measurement": "binding activity at kappa opioid receptor", "setting": "kappa opioid receptor", "value": "significant activity"}, {"measurement": "Plasma Stability (% Remaining @3 hrs)", "setting": "Plasma stability, mouse; Mouse, Plasma:1x PBS pH 7.4 1:1, 3 hrs", "value": 0.88, "unit": "%"}, {"measurement": "Plasma Stability", "setting": "Plasma stability, mouse; Table 1, species and matrix not given", "value": 42.2, "unit": "%"}, {"measurement": "Hepatic Microsome Stability", "setting": "[4]; Table 1, species not given, equals the mouse value", "value": 4.9, "unit": "%"}, {"measurement": "Hepatic Microsome Stability Mouse", "setting": "[4]; mouse", "value": 4.89}, {"measurement": "% remaining at 60 min in mouse liver homogenates", "setting": "[4]; mouse, 60 min", "value": 4.9, "unit": "%"}, {"measurement": "Plasma Protein Binding (mouse)", "setting": "Plasma protein binding; mouse", "value": 99.1, "unit": "%"}, {"measurement": "detection in the plasma protein binding assay", "setting": "Plasma protein binding; species not given, 18 h incubation", "value": "undetectable"}, {"measurement": "Hepatic Microsome Stability Human", "setting": "[5]; Human", "value": 4.19}, {"measurement": "% remaining at 60 min in human liver homogenates", "setting": "[5]; human, 60 min", "value": 4.2, "unit": "%"}, {"measurement": "solubility", "setting": "Aqueous solubility; 1x PBS, pH 7.4, aqueous buffer", "value": "3.6 µg/mL and 9.3 µM"}, {"measurement": "Aqueous Solubility pH 7.4", "setting": "Aqueous solubility; Table 1, pH 7.4", "value": 25.5, "unit": "μg/mL"}, {"measurement": "solubility", "setting": "Aqueous solubility; aqueous media, pH 5, aqueous buffer", "value": "3 µg/mL and 7.8 µM"}, {"measurement": "solubility", "setting": "Aqueous solubility; aqueous media, pH 6.2, aqueous buffer", "value": "3.6 µg/mL and 9.3 µM"}, {"measurement": "solubility", "setting": "Aqueous solubility; aqueous media, pH 7.4, aqueous buffer", "value": "9.8 µg/mL and 25 µM"}]}
